This is an account of results in patent US11648395B2, “Electrode assemblies for neuromodulation” (Cardionomic, Inc., priority 2018, dated 2023).

The assay concerns normal, non-HF ovine model. The assay is described as follows: Correlation of right and left ventricle contractility (max dP/dt) after injection, heartbeat-by-heartbeat. The assay is classed as in vivo. Conditions: max(dP/dt) used as surrogate for contractility, after injection (calcium: 5 mL). The source says: The correlation was a heartbeat-by-heartbeat analysis. Pressure measurements, taken by a Millar catheter comprising a MEMS pressure sensor, in units of max(dP/dt) was used as a surrogate for contractility. The first change, a dobutamine injection, provided a very high contractility increase greater than 500%. The average correlation between right ventricle contractility and left ventricle contractility was very good at 0.91, where 1.00 is a perfect correlation. Accordingly, if a subject is given a dobutamine injection, measuring changes to right ventricle contractility can provide accurate information about changes to left ventricle contractility. The first change was repeated three times. The second change, calcium injection at 5 mL, provided a contractility increase of about 20%. […] The average correlation between right ventricle contractility and left ventricle contractility using a Millar (MEMS) sensor on a catheter was very good at 0.91. The average correlation between right ventricle contractility and left ventricle contractility using a fluid-filled lumen of a Swan-Ganz catheter in communication with an external pressure sensor was also very good at 0.87. Accordingly, under certain circumstances such as measurement of an animal (normal, non-HF ovine model) model, if a subject is given a calcium injection, measuring changes to right ventricle contractility with a MEMS sensor or a fluid filled lumen can provide accurate information about changes to left ventricle contractility.

Regarding calcium [Calcium Injection], the “Contractility % Increase” value is around 20%. Besides, the “Contractility % Increase” value (listed as calcium injection) is recorded as “about 20%”.
In the case of `CC(CCc1ccc(O)cc1)NCCc1ccc(O)c(O)c1` (stereo not shown) [Dobutamine Injection, dobutamine], the “Contractility % Increase” value was above 500%. For the same compound, the “Contractility % Increase” value (listed as dobutamine injection) is “greater than 500%”.
